The subject of one assay is Ramos cells. The assay can be described thus: In vitro cytotoxicity (potency) against Ramos cells, WST-8 cell viability assay. In kind it is cell-based. As to conditions: Homo sapiens, 120 h, read-out: IC50, in vitro potency against Ramos cells. The procedure: In Vitro Potency Measurement Against Ramos Cells in 37° C., 5 Day Incubation
(§1) General Procedure Used: Samples of unconjugated free drug compounds or drug conjugates were added to 96-well flat bottomed tissue culture plates and titrated using serial dilutions to cover the desired molar range. Antigen positive (Ag^+) or Antigen negative (Ag^−) cells were added to the wells in specific cell densities (1000˜10000 cells/wall) in such a way that there were triplicate samples for each drug concentration for each corresponding cell line. All other cell lines were grown in RPMI-1640 (catalog no. 11875-085, Invitrogen), supplemented with 10% fetal bovine serum and gentamycin. The plates were then incubated at 37° C. in an atmosphere of 5% CO2 for 5 days. At the end of the incubation period cytotoxic potencies were then assessed using a WST-8 based cell viability assay and surviving cells were measured by developing with WST-8 (2-7 hours). The absorbance in each well was measured and the surviving fraction of cells at each concentration was plotted to reveal the cytotoxicity and/or antigen specificity (of the conjugates). The potency and specificity of the antibody-drug conjugates were measured against antigen-expressing cells, with and without the additions of an excess amount of blocking unconjugated antibody to show specificity of the killing effect.

A further assay has as its system Raji cells. Description: In vitro cytotoxicity (potency) against Raji cells, WST-8 cell viability assay. The assay is classed as cell-based. To be noted: Homo sapiens, 120 h, read-out: IC50 values towards Raji cells. The procedure: In Vitro Potency Measurement Against Raji Cells in 37° C., 5 Day Incubation
as §1
Background: Formazan colour is commonly taken as a measure of viable cells.

Results on 2 compounds are retold here after patent US9988408B2, “Cytotoxic agents for conjugation to a cell binding molecule” (priority 2013, dated 2018).

One may read the IC50 as the concentration at which inhibition is half-maximal.

`COc1cc2c(cc1OCP(=O)(COc1cc3c(cc1OC)C(=O)C1C[C@@H](F)C[C@H]1C=N3)NCCCSSc1ccccn1)N=C[C@@H]1C[C@H](F)CC1C2=O` (some centres unmarked) [Example 68]: the IC50 in the assay on Ramos cells was in the range of 0.1 to 0.5 nM. For `C=C1C[C@H]2C=Nc3cc(OCCP(=O)(CCOc4cc5c(cc4OC)C(=O)N4CC(=C)C[C@H]4C=N5)CCSSC)c(OC)cc3C(=O)N2C1` [Example 39], the IC50 with Raji cells fell in the range of 0.005 to 0.011 nM.
